From patent publication US20220111034A1, “VIRUS COMPOSITIONS” (priority 2019, published 2022)

Columns and labels:
[1] = biological target: T1, σ1-α-SA complex (Reovirus type 3, UniProt P03528); assay: FD-based AFM single-virus force spectroscopy on α-SA-coated model surfaces; format: binding; conditions: injection of 1 mM free glycan, FIG. 3b
T1 construct: made in house; host or cells: L929 cells (virus-infected)
T1 sequence (P03528 1-455): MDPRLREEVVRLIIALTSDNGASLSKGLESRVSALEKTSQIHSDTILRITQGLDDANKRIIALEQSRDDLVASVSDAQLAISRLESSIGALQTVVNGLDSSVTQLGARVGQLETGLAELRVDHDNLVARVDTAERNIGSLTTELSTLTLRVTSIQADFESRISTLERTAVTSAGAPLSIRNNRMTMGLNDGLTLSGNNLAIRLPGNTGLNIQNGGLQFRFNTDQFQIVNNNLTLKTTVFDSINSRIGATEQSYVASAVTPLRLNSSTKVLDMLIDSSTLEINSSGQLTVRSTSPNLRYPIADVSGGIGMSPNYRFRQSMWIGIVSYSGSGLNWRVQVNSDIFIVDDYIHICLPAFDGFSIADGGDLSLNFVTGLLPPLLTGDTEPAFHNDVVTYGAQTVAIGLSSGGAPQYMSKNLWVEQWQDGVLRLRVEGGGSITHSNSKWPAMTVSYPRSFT
Description: NHS-PEG27-acetal linkers were used to functionalize AFM tips as described (Gruber. Crosslinkers and Protocols for AFM Tip Functionalization. https://wwwjku.at/institut-fuer-biophysik/forschung/linked, 2018; Wildling et al. Linking of sensor molecules with amino groups to aminofunctionalized AFM tips. Bioconjug. Chem. 2011, vol. 22, 1239-1248). AFM tips (PFQNM-LC and MSCT probes, Bruker) were immersed in chloroform for 10 min, rinsed with ethanol, dried with a stream of filtered nitrogen, cleaned for 10 min using an ultraviolet radiation and ozone (UV-0) cleaner (Jetlight), and immersed overnight in an ethanolamine solution (3.3 g of ethanolamine hydrochloride in 6.6 mL of DMSO). The cantilevers were washed three times with DMSO, and two times with ethanol and dried with nitrogen. To ensure a low grafting density of the linker on the AFM tip, 1 mg of acetal-PEG27-NHS was diluted in 0.5 mL of chloroform with 30 μL of […] (Gruber, supra; Wildling et al., supra). Ethanolamine-coated cantilevers were immersed for 2 h in this solution, washed three times with chloroform, and dried with nitrogen. Cantilevers were then immersed for 10 min in 1% citric acid in milliQ water, washed three times with milliQ water, and dried with nitrogen. Virus solution (80 μL at ˜10^8 to 10^9 particles mL^−1) was pipetted onto the tips placed on Parafilm (Bemis NA) in a small plastic dish stored within an icebox. A freshly prepared solution of NaCNBH3 (2 μL at ˜6% wt. in 0.1 M NaOH(aq)) was gently mixed into the virus solution, and the cantilever chips were gently positioned with the cantilevers extending into the virus drop. The icebox was incubated at 4° C. for 1 h. Then, 5 μL of 1 M ethanolamine solution (pH 8) was gently mixed into the drop to quench the reaction. The icebox was incubated at 4° C. for an additional 10 min, and the cantilever chips were removed, washed three times in ice-cold PBS, and stored in individual wells of a multiwell dish containing 2 mL of ice-cold virus buffer (150 mM NaCl, 15 mM MgCl2, 10 mM Tris, pH adjusted to 7.4) per well until used in AFM experiments. […]

[2] = test system: JAM-A; assay: Biolayer interferometry (BLI) of JAM-A-reovirus interactions; format: binding; conditions: 1 mM free glycan
Description: Virus binding to JAM-A was measured on a BLItz® (Pall ForteBio) biolayer interferometer equipped with a Ni2+-NTA biosensor (Pall ForteBio). After loading the chip in a 10 mM NiCl2 solution for 2 min and running an initial baseline step in milliQ water (1 min), JAM-A (0.2 mg mL^−1) was immobilized on the exposed Ni^2+ ions via its C-terminal His6 tag for 5 min until the binding signal reached a plateau (complete saturation of the biosensor). Binding of viral particles (T3SA+, T3SA− or ISVP; at 16 nM) in the absence or presence of 1 mM Neu5Ac was measured during a 10 min association step after another baseline step (virus buffer for 1 min). Dissociation was monitored directly after the association step for 10 min during which the virus solution was exchanged with virus buffer. Chip can be regenerated several times by exposing the biosensor to 10 mM Glycine pH 1.7 followed by a neutralization buffer (Kinetics Buffer). The resulting sensorgram (binding over time) was processed and fitted with a nonlinear regression approach using an association and then dissociation fit provided by GraphPad Prism. Virus concentration and time at which dissociation was initiated were constrained to constant values of 16 nM and 17 min, respectively. From that fit, koff and kon were extracted and KD was calculated.

| Molecule | competition with T3SA+ binding to SA [1] | influence on T3SA− binding to JAM-A [2] |
| --- | --- | --- |
| CC(=O)N[C@H]1[C@H](O[C@H]2[C@@H](O)[C@@H](CO)O[C@@H](O[C@H]3[C@H](O)[C@@H](O)C(O)O[C@@H]3CO)[C@@H]2O)O[C@H](CO)[C@@H](O[C@@H]2O[C@H](CO)[C@H](O)[C@H](O)[C@H]2O)[C@@H]1O (mixture of isomers) [LNnT, lacto-N-neotetraose, reference compound] | but not LNnT strongly competed |  |
| CC(=O)N[C@H]1[C@H]([C@H](O)[C@H](O)CO)OC(O)(C(=O)O)C[C@@H]1O (stereo partly shown) [Neu5Ac, N-acetylneuraminic acid] | strongly competed | had no influence |
| sialyl-lacto-N-tetraose a [LSTa] | strongly competed |  |
